Data from patent publication US20230303486A1, “CYCLOBUTYL-UREA DERIVATIVES” (Idorsia Pharmaceuticals Ltd, priority 2020, published 2023).
Where two headings read alike, the source gives them in different places.

Tests used:
[1] = system: primary neuronal cultures from embryonic rat brains; experiment: Rat oscillation assay (FLIPR, neuronal calcium oscillations); type: cell-based; conditions: Rattus norvegicus
Description: This assay is a functional phenotypic assay designed to mimic epileptic seizures using primary neuronal cultures from embryonic rat brains, which form a functional neuronal network that generate synchronized intracellular calcium concentration oscillations when cultured at high density in 384-well plate. The epileptic phenotype is induced by incubating the neurons in magnesium-free assay buffer, that results in increased probability of NMDA receptor activation, leading to an increased frequency and amplitude of intracellular calcium oscillations. Once neurons are incubated with the calcium indicator dye Fluo-8 AM (Tebu-bio), neuronal calcium oscillations can be monitored in real time using FLIPR® Tetra (fluorometric plate reader, Molecular Devices). With these recordings, the effect of anti-epileptic drugs can be quantified. The anti-epileptic effect of compounds, which activate directly or indirectly the Kv7 channels can be modulated by the Kv7 channel blocker XE-991. The assay was performed as described previously (Pacico N, Mingorance-Le Meur A. New In Vitro Phenotypic Assay for Epilepsy: Fluorescent Measurement of Synchronized Neuronal Calcium Oscillations. PLoS ONE 9(1) 2014) with modifications described hereafter.
Animal care followed standard procedures in accordance with swiss institutional guidelines. Dissociated neuronal cultures were obtained from cerebral cortices of embryonic Wistar rats at embryonic stage E18 (Charles River). The uterine horns were removed by caesarian surgery from deeply anesthetized rats (Isofurane) and sacrificed by decapitation. The embryos were decapitated by closing forceps. The brains were isolated and dissected one by one in ice-cold PBS (Life Technologies) under optical control using a binocular. Meninges, olfactory bulbs, and basal ganglia were removed. Cortical hemispheres (still including the hippocampus) were cut in small pieces with tweezers and placed on ice in prechilled Hibernate-E medium (Life technology). The hemispheres were then incubated in 10 mL of Hibernate-E containing 15 U/mL papain (Worthington) for 25 min at 30° C. with gentle mixing every 10 min. Genomic DNA was then digested by prolonging the incubation during 10 min at 37° C. in presence of 4 U/mL rDNase I (Ambion). The obtained suspension was then centrifuged at 800 g for 5 min and the cell pellet was resuspended in 2 mL Hibernate-E and gently dissociated by pipetting up and down 10 times with a plastic Pasteur pipette resulting in a homogenous cell suspension. This suspension was immediately filtered through a 70 µm cell strainer (MACS® SmartStrainer, Miltenyi), collected in 10 mL Hibernate-E and centrifuged at 800 g for 5 min. The cell pellet was resuspended in Neurobasal medium, supplemented with 2% B-27, 0.5 mM Glutamax-I, 100 U/mL penicillin, 100 µg/mL streptomycin (Life Technologies) and diluted at the final concentration of 300′000 cells/mL. One day before plating the cells, 384-well plates were coated with 25 µL/well of 0.1 % poly-L-lysine solution (Sigma), incubated overnight at 37° C., washed two times with sterile distilled water and allowed to dry at room temperature for >2 h. The neurons were seeded at a density of 15′000 cells/well in 50 µL/well in a 384-well black, clear-bottomed plates (Corning) and subsequently maintained in an incubator at 37° C., 5% CO2 and 95% humidity for 8 to 10 days. After 3 and 7 days, 40% of media was renewed under sterile conditions.
Neurons seeded in the assay plates were washed with Hank’s balanced salt solution (HBSS) devoid of Ca^2+ and Mg^2+, supplemented with 20 mM HEPES (Life Technologies) and 2 mM CaCl2 (Sigma), pH 7.4 (hereafter called Assay buffer) using a Biotek EL406 plate washer. Neurons were loaded with 1 µM Fluo-8 AM in Assay buffer for 15 min at 37° C., 5% CO2. […]

[2] = molecular target: T1, Kv7.2/7.3 (human KCNQ2 and KCNQ3 genes) in HEK293 cells (Homo sapiens, UniProt O43525+O43526); experiment: Kv7.2/3 assay (FLIPR potassium assay, agonist mode); type: cell-based; conditions: Kv7.2/7.3 activation, responses relative to Flupirtine
T1 construct: host or cells: HEK293
Description: HEK293 cells were stably transfected with the appropriate ion channel cDNA(s) (human KCNQ2 and KCNQ3 genes). Cells were cultured in Dulbecco’s Modified Eagle Medium /Nutrient mixture F-12 (D-MEM/F-12) supplemented with 10% fetal bovine serum, 100 U/mL penicillin G sodium, 100 µg/mL streptomycin sulfate and selection antibiotics. FLIPR Test Procedure: For FLIPR assay, cells were plated in 384-well black clear-bottomed microtiter plates (BD Biocoat Poly-D-Lysine Multiwell Cell Culture Plate) at 15′000 to 30′000 cells per well. Cells were incubated at 37° C. overnight or until cells reached sufficient density in the wells (near confluent monolayer) to use in fluorescence assays. […] Assays were performed with the FLIPR potassium assay kit (Molecular Devices) according to the manufacturer’s instructions. Dye-loading: Growth media was removed and replaced with 20 µL of dye loading buffer for 60 min at room temperature. FLIPR Recording (agonist mode): Stock solutions of test compounds were prepared at a concentration of 33.3 mM in DMSO. 5 µL of 5x concentrated test, vehicle, or control compounds solutions prepared in the stimulation buffer (K^+-free buffer with 5 mM TI^+) were added to each well and fluorescence recording was continued for 5 min. The agonist effect (EC50 and % effect) of test or control compounds on Kv7 channels was determined as follows: Raw data was exported using Screenworks® 4.2 software and the fluorescence traces were analysed using Microsoft Excel (Microsoft Corp., Redmond, WA). The test compounds responses were expressed as % of maximum response of the control compound Flupirtine (Sigma-Aldrich), which was tested at concentrations ranging from 0.03 to 100 µM. Concentration-response data were fitted to a Hill equation. Non-linear least squares fits were made assuming a simple binding model. If appropriate, fits were weighted by the standard deviation. No assumptions about the fit parameters were made; the fit parameters were determined by the algorithm.

[3] = system: audiogenic generalized convulsive seizures in DBA/2J mice; experiment: Audiogenic seizure-sensitive mouse model of generalized convulsive seizures; type: in vivo; conditions: challenge 1h
Description: Compounds were formulated in a 10% polyethylene glycol 400 (PEG 400) / 90% aqueous solution of 0.5 % methylcellulose (MC 0.5%). Firstly drugs are dissolved in PEG 400 and then suspended in MC 0.5 % for oral gavage at Xmg/5 mL/kg (X see table).
• 1. Procedure: Following two days of acclimatisation, auditory seizures are induced in male juvenile DBA/2J mice (22-24 days old; Janvier Labs, France). Each mouse is placed individually in the exposure chamber, an hemispheric acrylic glass dome (diameter: 50 cm) within a sound-attenuated box. The soundattenuated box is equipped with two house lights and a camera system (Fire-I from Unibrain) in order to observe and record the behavioral seizure response. After 60 seconds of habituation, the stimulus, a mixed frequency tone of 15-20 kHz at 110 dB (SASLab Lite, Avisoft Bioacoustics), is played from a speaker that is placed on the top center of the dome. […] Seizures are classified as following: stage 0, normal behavior; stage 1, wild running; stage 2, generalized clonus; stage 3, tonic extension of the hind limbs. • 2. Compounds testing: Acute compound effects on audiogenic generalized convulsive seizures are evaluated in independent groups of 8-10 mice randomly assigned. Following oral administration of compound or vehicle, the maximum seizure stage during sound exposure is assessed. Compounds are given 1 hour before exposure to the stimulus. Each mouse is exposed to the auditory stimulus only once and euthanized afterwards by CO2 inhalation.

[4] = system: patients with drug-resistant focal-onset seizures; conditions: two phase three trials; cited from earlier work
[5] = system: seizure activity in various rodent models; conditions: acute seizure models, DBA2 mice, rat kindling model; cited from earlier work
[6] = system: Knock-in mice carrying a KCNQ2 or KCNQ3 variant; conditions: knock-in mice with spontaneous seizures, reduced seizure thresholds; cited from earlier work
[7] = 20 min, 20 min after compound addition, AUC of fluorescence, read-out: FLIPR: IC50 [nM] 20 min
[8] = Cortical neurone, acute phase, ratio of AUC fluorescence before and after compound addition, rat cortical neurons, Mg-free buffer, read-out: FLIPR: IC50 [nM] acute

SMILES	IC50 [1, 7]	IC50 [1, 8]	EC50 [2]	Seizure stage [% vs. vehicle] ([3]; 15 mg/kg po)	seizure frequency [4]	seizure activity [5]	seizures [6]	Seizure stage [% vs. vehicle] ([3]; 30 mg/kg po)
O=C(NCc1cccc(C(F)(F)F)c1)NC12CC(C(F)(F)F)(C1)C2 [Example 37, 1-(3-Trifluoromethyl-benzyl)-3-(3-trifluoromethyl-bicyclo[1.1.1]pent-1-yl)-urea]	32 nM	26 nM	30 nM	-100 % vs. vehicle				
CCOC(=O)Nc1ccc(NCc2ccc(F)cc2)cc1N [Retigabine/ezogabine]					significantly reduced seizure frequency	reduces seizure activity	attenuated	
O=C(NCc1cccc(OC(F)(F)F)c1)NC12CC(F)(C1)C2 [Example 24, 1-(3-Fluoro-bicyclo[1.1.1]pent-1-yl)-3-(3-trifluoromethoxybenzyl)-urea]	198 nM	208 nM	143 nM					-100 % vs. vehicle
